Measured values taken from ChEMBL document CHEMBL1201862, “PubChem BioAssay data set” (2004).
The source made the active and inactive calls.

How the values were obtained:
[1] = molecular target: Eukaryotic translation initiation factor 4H (Homo sapiens, UniProt Q15056); test: inhibitors of translation initiation factor eIF4H – SAR follow-up (AID 435011); assay type: functional
[2] = molecular target: Polyadenylate-binding protein 1 (Homo sapiens, UniProt P11940); test: PABP inhibition in translation initiation, SAR follow-up (AID 435018); assay type: functional
HEK293 [3] = test: cells; assay type: functional, cell-based; conditions: Homo sapiens
HEK293 [4] = test: cells; conditions: Homo sapiens
HEK293 [5] = test: NOD2 signaling inhibitors in MDP-stimulated cells, cell-based, uHTS, luminescence (AID 2001); assay type: functional; conditions: Homo sapiens
Tumor necrosis factor = Tumor necrosis factor (Homo sapiens, UniProt P01375); test: analog potency on TNFa NF-kB signaling – cell-based, revised, SAR follow-up (AID 2337); assay type: functional
HEK293 [6] = test: cells; assay type: functional, cell-based; conditions: Homo sapiens; remark: listed apart in the source
[7] = molecular target: T1, Nucleotide-binding oligomerization domain-containing protein 1 (Homo sapiens, UniProt Q9Y239); test: blockers of NOD1 pathway activity – revised, SAR follow-up (AID 2333); assay type: functional
T1 sequence (Q9Y239 whole entry): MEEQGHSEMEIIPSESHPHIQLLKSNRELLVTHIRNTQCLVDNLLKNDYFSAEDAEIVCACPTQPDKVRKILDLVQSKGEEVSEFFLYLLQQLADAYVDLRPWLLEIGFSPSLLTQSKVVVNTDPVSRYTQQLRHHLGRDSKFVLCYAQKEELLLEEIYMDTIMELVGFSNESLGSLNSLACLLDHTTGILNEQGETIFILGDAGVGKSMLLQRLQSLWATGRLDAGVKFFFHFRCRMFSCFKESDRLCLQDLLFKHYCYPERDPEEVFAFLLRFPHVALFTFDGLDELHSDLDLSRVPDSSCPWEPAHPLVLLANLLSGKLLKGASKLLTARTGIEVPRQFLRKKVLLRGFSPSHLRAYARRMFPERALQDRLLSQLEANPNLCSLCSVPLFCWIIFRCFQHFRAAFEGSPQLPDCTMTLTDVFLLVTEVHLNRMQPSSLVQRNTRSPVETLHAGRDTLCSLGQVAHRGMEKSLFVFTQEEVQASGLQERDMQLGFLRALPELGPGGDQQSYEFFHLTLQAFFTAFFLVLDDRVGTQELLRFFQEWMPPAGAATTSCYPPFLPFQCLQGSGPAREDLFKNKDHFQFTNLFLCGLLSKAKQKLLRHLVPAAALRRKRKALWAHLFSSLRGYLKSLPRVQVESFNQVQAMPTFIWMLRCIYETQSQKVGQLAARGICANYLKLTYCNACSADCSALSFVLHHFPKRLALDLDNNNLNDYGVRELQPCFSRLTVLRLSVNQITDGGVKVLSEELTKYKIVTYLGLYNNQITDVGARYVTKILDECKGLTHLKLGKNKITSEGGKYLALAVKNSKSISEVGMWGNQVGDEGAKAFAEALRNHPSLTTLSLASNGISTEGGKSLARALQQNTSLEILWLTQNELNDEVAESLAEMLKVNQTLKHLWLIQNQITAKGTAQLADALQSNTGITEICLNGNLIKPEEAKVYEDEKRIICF

HEK293 [8] = test: inhibition of NOD1-driven NF-kB reporter – cell-based, luminescence, uHTS, primary screen (AID 1578); assay type: functional; conditions: Homo sapiens
cells [9] = assay type: functional, cell-based
HEK293 [10] = test: cells; assay type: functional, cell-based; conditions: Homo sapiens; remark: listed apart in the source
cells [11] = assay type: functional, cell-based; remark: listed apart in the source
INS1 = test: INS-1E survival protection against cytokine death – cell-based, luminescence, retest, dose response (AID 449756); assay type: functional; conditions: Rattus norvegicus;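 further: cell death triggered by IL-1 beta plus TNF-alpha plus IFN-gamma mixture; protective hits raise ATP signal compared with cytokine alone wells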
[12] = molecular target: Nucleotide-binding oligomerization domain-containing protein 2 (Homo sapiens, UniProt Q9HC29); test: inhibition of NOD2-driven NF-kB reporter – cell-based, luminescence, uHTS, HEK293 (AID 1566); assay type: functional
[13] = Luminescence Cell-Based Dose Retest to Confirm Inhibitors of Cancer Stem Cells. [Related pubchem assays (depositor defined):AID2717, AID2721]; assay type: functional; conditions: Homo sapiens
SUMO-activating enzyme = SUMO-activating enzyme (Homo sapiens, UniProt Q9UBT2); test: blockers of UBC9-mediated SUMO conjugation – biochemical, AlphaScreen, SUMOylation inhibitor project, confirmation (AID 2018); assay type: functional
[14] = molecular target: T2, Kappa-type opioid receptor (Homo sapiens, UniProt P41145); assay type: functional
Beta-galactosidase = Beta-galactosidase (Escherichia coli, UniProt Q8VNN2); assay type: functional
[15] = molecular target: T2, Kappa-type opioid receptor; assay type: functional; remark: listed apart in the source
Protein skinhead-1 = molecular target: T3, Protein skinhead-1 (Caenorhabditis elegans, UniProt P34707); assay type: functional
T3 sequence (P34707 whole entry): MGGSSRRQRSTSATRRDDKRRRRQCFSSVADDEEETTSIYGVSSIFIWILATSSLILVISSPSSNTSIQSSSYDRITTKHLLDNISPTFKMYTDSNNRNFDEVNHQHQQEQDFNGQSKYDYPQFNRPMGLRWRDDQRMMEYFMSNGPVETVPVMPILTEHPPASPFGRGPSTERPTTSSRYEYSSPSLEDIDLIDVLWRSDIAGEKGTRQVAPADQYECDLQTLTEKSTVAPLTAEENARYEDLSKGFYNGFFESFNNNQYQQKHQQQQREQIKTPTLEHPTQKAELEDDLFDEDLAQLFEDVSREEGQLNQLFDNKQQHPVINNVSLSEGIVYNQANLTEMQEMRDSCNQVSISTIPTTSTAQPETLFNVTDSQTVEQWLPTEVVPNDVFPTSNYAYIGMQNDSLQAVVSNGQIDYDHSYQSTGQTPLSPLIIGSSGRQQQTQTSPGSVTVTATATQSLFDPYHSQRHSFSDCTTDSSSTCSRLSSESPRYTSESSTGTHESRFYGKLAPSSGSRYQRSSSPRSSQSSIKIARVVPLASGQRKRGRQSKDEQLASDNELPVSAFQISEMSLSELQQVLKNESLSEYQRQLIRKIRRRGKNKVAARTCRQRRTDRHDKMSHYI

[16] = molecular target: Peroxisome proliferator-activated receptor gamma/Nuclear receptor coactivator 2 (Homo sapiens, UniProt P37231); test: (§1) TR-FRET dose response biochemical High Throughput Screening assay for agonists of the steroid receptor coactivator 2 (SRC-2) recruitment by the peroxisome proliferator-activated receptor gamma (PPAR gamma): non-selective agonists. [Related pubchem assays: 1297, 1032 ]; assay type: functional
[17] = molecular target: Peroxisome proliferator-activated receptor gamma/Nuclear receptor coactivator 3 (Homo sapiens, UniProt P37231); test: as §1, with “3 (SRC-3)” for “2 (SRC-2)”, “1301 (Confirmation screen.), 1048 (Primary screen.)]” for “1297, 1032 ]”; assay type: functional
[18] = molecular target: Peroxisome proliferator-activated receptor gamma/Nuclear receptor coactivator 1 (Homo sapiens, UniProt P37231); test: as §1, with “1 (SRC-1)” for “2 (SRC-2)”, “assays (depositor defined):AID1300, AID1808, AID504735, AID631]” for “assays: 1297, 1032 ]”; assay type: protein assay
[19] = molecular target: T4, Voltage-gated N-type calcium channel alpha-1B subunit/Amyloid beta A4 precursor protein-binding family A member 1 (Homo sapiens, UniProt Q00975+Q02410); test: disruptors of Mint-PDZ/N-type channel peptide interaction – biochemical, HTRF, SAR follow-up (AID 2489); assay type: functional
[20] = molecular target: T4, Voltage-gated N-type calcium channel alpha-1B subunit/Amyloid beta A4 precursor protein-binding family A member 1; test: disruptors of Mint-PDZ/N-type channel peptide interaction – biochemical, HTRF, set 2, SAR follow-up (AID 434980); assay type: functional
[21] = molecular target: Heat shock protein HSP 90-alpha (Homo sapiens, UniProt P07900); assay type: functional, organism-based
BJ = test: growth inhibition of engineered Ras-driven BJ cells – cell-based, alamar blue fluorescence, cherrypicked samples, dose response (AID 2631); assay type: functional; conditions: Homo sapiens;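 further: confirmatory dose-response assay in RAS-dependent BJ fibroblasts engineered with TERT, LT and ST, with cytotoxicity read by fluorescence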
Nonstructural protein 1 = Nonstructural protein 1 (Influenza A virus, UniProt Q194T2); assay type: functional, Influenza A virus (A/California/07/2009(H1N1))
[22] = molecular target: T5, Rac GTPase-activating protein 1 (Homo sapiens, UniProt Q9H0H5); test: blockers of MgcRacGAP-driven Rac1 GTP hydrolysis – biochemical, ADP Hunter fluorescence, primary and confirmatory, confirmation (AID 624330); assay type: functional
T5 sequence (Q9H0H5 whole entry): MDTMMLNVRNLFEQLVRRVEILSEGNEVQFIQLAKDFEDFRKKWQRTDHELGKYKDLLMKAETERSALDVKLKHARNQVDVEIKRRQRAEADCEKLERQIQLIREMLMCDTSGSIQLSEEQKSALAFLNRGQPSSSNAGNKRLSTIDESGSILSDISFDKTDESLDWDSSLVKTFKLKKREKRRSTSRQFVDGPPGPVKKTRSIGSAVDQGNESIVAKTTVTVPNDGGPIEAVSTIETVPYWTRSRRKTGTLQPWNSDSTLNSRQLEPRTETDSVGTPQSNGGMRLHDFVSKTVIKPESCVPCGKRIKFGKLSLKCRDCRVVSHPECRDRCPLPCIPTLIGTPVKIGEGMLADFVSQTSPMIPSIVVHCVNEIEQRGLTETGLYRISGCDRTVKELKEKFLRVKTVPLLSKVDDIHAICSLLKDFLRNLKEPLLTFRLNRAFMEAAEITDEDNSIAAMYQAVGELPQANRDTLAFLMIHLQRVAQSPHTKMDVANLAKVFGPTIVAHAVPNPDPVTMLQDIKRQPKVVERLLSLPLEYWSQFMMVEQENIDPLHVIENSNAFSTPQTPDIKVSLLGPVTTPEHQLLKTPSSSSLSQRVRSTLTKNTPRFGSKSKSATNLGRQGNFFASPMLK

T2 sequence (P41145 whole entry): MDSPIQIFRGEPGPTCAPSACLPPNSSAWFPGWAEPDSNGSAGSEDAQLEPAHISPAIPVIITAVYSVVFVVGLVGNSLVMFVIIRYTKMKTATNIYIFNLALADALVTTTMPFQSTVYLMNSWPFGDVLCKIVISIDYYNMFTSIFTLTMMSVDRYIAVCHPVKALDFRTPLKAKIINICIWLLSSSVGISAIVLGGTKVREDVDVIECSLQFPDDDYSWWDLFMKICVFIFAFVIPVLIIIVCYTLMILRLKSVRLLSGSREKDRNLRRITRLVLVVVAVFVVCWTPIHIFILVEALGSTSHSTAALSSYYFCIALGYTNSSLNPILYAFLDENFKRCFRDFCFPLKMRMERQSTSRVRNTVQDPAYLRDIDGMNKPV
Chain of Polyadenylate-binding protein 1 (P11940 whole entry): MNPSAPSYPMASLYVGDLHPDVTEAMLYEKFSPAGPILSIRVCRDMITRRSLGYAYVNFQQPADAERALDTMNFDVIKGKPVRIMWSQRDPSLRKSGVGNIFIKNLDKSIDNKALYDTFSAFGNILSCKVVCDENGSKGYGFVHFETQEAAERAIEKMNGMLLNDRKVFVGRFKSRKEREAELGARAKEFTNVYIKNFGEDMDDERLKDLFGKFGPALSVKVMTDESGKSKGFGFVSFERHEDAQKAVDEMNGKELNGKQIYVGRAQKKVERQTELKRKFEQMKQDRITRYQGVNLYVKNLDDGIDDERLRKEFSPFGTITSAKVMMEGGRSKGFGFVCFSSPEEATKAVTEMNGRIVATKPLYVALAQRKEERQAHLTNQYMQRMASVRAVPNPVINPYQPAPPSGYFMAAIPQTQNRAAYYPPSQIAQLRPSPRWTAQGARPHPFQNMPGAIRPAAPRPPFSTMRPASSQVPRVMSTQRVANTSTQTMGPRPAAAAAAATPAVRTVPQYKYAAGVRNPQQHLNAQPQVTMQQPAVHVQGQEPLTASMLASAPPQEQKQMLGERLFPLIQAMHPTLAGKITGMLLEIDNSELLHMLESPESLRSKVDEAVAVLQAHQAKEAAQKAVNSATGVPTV
Chain of Peroxisome proliferator-activated receptor gamma/Nuclear receptor coactivator 3 (P37231 whole entry): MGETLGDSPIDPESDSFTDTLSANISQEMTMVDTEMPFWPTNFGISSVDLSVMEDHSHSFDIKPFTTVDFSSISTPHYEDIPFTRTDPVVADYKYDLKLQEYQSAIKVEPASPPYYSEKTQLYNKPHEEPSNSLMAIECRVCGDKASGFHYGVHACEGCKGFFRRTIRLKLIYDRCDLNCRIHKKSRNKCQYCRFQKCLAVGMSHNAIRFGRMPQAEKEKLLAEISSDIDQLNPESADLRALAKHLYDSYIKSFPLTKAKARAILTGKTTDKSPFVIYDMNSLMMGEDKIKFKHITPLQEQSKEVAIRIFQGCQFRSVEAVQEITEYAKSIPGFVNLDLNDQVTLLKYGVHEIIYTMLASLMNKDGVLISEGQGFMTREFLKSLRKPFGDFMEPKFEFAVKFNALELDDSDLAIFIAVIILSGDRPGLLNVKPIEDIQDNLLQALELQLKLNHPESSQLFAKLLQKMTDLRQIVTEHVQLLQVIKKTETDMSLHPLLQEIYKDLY
Chain of Peroxisome proliferator-activated receptor gamma/Nuclear receptor coactivator 3 (Q9Y6Q9 whole entry, further chain): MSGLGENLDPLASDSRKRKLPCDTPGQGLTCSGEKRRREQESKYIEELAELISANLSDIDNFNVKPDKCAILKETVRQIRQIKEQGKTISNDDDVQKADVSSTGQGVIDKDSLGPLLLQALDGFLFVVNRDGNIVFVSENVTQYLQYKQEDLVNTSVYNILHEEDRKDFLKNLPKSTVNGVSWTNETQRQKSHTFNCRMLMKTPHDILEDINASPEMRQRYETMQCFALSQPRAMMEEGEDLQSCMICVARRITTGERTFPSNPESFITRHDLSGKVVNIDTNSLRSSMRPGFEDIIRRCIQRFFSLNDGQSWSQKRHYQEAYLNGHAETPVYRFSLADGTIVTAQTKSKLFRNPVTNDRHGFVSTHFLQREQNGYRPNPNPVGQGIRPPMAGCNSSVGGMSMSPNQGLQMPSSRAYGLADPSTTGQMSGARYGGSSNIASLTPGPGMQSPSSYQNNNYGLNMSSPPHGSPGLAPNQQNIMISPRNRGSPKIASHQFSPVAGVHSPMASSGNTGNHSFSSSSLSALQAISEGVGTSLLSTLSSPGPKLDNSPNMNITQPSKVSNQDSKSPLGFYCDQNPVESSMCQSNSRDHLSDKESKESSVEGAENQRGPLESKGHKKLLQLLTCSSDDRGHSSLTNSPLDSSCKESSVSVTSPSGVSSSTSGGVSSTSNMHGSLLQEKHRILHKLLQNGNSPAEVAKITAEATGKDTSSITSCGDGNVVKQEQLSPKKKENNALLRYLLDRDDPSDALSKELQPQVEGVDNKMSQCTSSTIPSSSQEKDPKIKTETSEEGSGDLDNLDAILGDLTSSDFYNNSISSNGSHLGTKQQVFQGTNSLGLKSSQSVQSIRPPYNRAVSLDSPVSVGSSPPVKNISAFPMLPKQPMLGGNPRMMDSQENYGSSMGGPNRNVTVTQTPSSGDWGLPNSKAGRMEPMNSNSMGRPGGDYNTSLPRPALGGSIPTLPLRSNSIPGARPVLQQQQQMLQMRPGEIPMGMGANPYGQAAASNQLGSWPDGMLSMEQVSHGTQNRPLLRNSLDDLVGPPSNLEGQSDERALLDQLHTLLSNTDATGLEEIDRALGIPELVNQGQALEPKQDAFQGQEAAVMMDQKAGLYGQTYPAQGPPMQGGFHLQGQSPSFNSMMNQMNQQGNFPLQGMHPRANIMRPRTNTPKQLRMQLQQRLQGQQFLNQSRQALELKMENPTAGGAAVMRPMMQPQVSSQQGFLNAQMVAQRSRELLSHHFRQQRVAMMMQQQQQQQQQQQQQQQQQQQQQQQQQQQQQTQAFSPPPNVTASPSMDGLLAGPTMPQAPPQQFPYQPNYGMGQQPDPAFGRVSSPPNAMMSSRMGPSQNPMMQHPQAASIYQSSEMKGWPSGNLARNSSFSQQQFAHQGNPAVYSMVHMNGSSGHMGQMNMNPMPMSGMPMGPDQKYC
Chain of Tumor necrosis factor (P01375 whole entry): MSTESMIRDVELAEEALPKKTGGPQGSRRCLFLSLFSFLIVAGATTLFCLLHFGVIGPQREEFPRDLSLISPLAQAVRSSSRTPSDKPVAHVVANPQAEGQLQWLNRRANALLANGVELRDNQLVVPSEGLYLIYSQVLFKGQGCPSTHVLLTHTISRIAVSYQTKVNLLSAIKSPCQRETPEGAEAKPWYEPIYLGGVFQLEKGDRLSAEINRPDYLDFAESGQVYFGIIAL
Chain of Beta-galactosidase (Q8VNN2 whole entry): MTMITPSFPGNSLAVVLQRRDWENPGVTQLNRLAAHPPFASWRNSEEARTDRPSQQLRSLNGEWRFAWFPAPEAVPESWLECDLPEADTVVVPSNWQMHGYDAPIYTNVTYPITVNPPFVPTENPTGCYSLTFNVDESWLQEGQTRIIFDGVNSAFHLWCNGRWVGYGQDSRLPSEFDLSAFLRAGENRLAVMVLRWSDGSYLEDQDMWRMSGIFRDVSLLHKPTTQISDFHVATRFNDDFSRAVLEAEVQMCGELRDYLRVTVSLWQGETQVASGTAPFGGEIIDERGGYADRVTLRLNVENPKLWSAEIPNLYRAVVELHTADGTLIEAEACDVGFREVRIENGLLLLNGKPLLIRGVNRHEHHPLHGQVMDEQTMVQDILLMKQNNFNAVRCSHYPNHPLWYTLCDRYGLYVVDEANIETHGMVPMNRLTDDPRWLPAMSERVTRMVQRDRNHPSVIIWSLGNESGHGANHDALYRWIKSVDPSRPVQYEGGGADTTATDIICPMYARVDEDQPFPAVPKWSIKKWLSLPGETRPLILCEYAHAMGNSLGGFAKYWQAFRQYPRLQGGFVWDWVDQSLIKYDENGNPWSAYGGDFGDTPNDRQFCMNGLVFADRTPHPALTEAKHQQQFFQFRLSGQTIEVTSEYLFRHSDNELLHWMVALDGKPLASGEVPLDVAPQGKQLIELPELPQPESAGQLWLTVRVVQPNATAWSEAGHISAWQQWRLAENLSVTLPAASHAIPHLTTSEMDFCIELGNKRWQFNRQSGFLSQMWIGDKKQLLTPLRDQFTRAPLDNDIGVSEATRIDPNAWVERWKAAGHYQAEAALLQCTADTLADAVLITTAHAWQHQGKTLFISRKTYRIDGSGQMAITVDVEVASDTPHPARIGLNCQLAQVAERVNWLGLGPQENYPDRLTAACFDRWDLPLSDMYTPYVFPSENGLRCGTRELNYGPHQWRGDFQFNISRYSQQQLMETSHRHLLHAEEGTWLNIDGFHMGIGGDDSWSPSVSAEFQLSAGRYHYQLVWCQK
Chain of Nonstructural protein 1 (Q194T2 whole entry): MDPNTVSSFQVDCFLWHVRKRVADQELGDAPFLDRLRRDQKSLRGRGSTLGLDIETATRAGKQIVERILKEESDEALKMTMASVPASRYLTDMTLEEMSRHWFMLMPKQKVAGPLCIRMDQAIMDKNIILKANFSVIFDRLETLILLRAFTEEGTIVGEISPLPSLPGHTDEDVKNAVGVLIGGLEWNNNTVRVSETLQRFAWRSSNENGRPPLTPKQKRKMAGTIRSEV

## O=C(Nc1ccc(Cl)cc1)C1CCN(C(=O)c2cccs2)CC1
[1]
  IC50: > 100 µM (inactive)
[2]
  IC50: > 100 µM (inactive)

## COc1ccccc1CCNC(=O)CSc1ccc(-c2ccco2)nn1
[1]
  IC50: > 100 µM (inactive)
[2]
  IC50: > 100 µM (inactive)

## Cc1oc(-c2cc(F)ccc2F)nc1CN1CCN(c2ncnc3ccccc23)CC1
HEK293 [3]
  IC50: 11.1 µM (active)
HEK293 [4]
  IC50: > 20 µM (inactive)
HEK293 [5]
  IC50: 8.53 µM (active)
Tumor necrosis factor
  IC50: 5.97 µM (active)
HEK293 [6]
  IC50: 19.9 µM (active)
[7]
  IC50: 6.29 µM (active)
HEK293 [8]
  EC50: 4.42 µM (active)

## CN(Cc1cccnc1)C(=O)c1cc(COc2ccc3ncccc3c2)on1
HEK293 [3]
  IC50: 6.23 µM (active)
Cells [9]
  EC50: > 350 µM (not active)
HEK293 [10]
  IC50: > 20 µM (inactive)
HEK293 [4]
  IC50: > 20 µM (inactive)
Cells [11]
  EC50: > 350 µM (not active)
INS1
  AC50: 3.92 µM (active)
HEK293 [5]
  IC50: 8.18 µM (active)
[12]
  EC50: 9.78 µM (active)
Tumor necrosis factor
  IC50: 5.24 µM (active)
HEK293 [6]
  IC50: 17.3 µM (active)
[7]
  IC50: 2.92 µM (active)
HEK293 [8]
  EC50: 3.64 µM (active)

## CCc1ccc(NC(=O)C(CC)Sc2nc3cc4c(cc3c(=O)n2Cc2ccco2)OCO4)cc1 (centres undefined)
[13]
  AC50: 8.32 µM (active)
SUMO-activating enzyme
  IC50: 48.9 µM (active)

## CC(=O)NS(=O)(=O)c1ccc(Nc2ccc([N+](=O)[O-])c3nonc23)cc1
[14]
  IC50: > 32 µM
Beta-galactosidase
  EC50: 18.1 µM (active)
[15]
  IC50: 13.9 µM (active)
Protein skinhead-1
  IC50: 34.7 µM (active)

## O=C(CSc1ncnc2c1oc1ccccc12)NCc1ccco1
[16]
  EC50: 11.5 µM (not active)
[17]
  EC50: > 79.4 µM (not active)
[18]
  EC50: 22.6 µM (inactive)

## O=C(CSc1ncnc2c1oc1ccccc12)Nc1ccccc1F
[16]
  EC50: 59.2 µM (not active)
[17]
  EC50: 91.1 µM (not active)
[18]
  EC50: 63.3 µM (inactive)

## COc1ccccc1NC(=O)COC(=O)c1ccc(NC(N)=O)cc1
[1]
  IC50: 17.9 µM (active)
[2]
  IC50: 69.4 µM (active)

## CC12C=CC(C)(O1)C1C(=O)N(c3ccc(F)cc3)C(=O)C12 (centres undefined)
[19]
  IC50: 10.7 µM (active)
[20]
  IC50: 8.89 µM (active)

## C/C(=N\Nc1ncc(Cl)cc1Cl)c1ccccn1
[21]
  AC50: 1.84 µM (active)
[14]
  IC50: > 32 µM
Beta-galactosidase
  EC50: > 31.5 µM (inactive)
BJ
  EC50: 0.0209 µM (active)
[15]
  IC50: 3.47 µM (active)
Nonstructural protein 1
  IC50: 12 µM (active)

## Clc1cccc(-c2ccc(/C=N/c3ccc(N4CCOCC4)cc3)o2)c1Cl
[16]
  EC50: 30.5 µM (not active)
[22]
  IC50: 14.5 µM (active)
[17]
  EC50: > 79.4 µM (not active)
[18]
  EC50: 49 µM (inactive)
